Measured values as given in ChEMBL document CHEMBL1909046, “DrugMatrix in vitro pharmacology data”.
*1 amine or outer side, *2 acyl side, *3 side chain or, on linkers, in order; H or OH if unused. Where a SMILES comes first, the peptide text is derived from it. Bridges are numbered along the chain shown (N, C = ends). Roman numbers before positions name the chains, in order. [ ]: non-standard residue; d: D form. Actinocin(1to9) = Cc1c2oc3c(C)ccc(C(=O)[*:2])c3nc-2c(C(=O)[*:1])c(N)c1=O; NMeV = CN[C@H](C(=O)O)C(C)C; Sar = CNCC(=O)O

Legend:
[1] = molecular target: T1, Alpha-1A adrenergic receptor (Rattus norvegicus, UniProt P43140); assay: DRUGMATRIX: Alpha-1A adrenergic receptor radioligand binding (ligand: prazosin); type: cell membranes, Wistar, Submaxillary gland, Membrane; details: Not Active = under 50% inhibition at 10 µM
T1 sequence (P43140 whole entry): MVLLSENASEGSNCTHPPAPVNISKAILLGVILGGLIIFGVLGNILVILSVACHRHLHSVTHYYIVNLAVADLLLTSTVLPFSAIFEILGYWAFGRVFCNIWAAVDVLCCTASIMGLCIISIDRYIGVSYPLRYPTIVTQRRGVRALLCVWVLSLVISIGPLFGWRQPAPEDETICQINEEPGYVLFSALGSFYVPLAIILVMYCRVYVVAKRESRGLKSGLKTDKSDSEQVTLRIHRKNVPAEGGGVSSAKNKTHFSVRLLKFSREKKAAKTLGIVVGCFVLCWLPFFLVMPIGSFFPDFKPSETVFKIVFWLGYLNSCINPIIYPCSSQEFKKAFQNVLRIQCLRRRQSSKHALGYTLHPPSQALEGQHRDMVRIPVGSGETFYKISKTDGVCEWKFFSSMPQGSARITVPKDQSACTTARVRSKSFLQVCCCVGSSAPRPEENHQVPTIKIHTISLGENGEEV

[2] = molecular target: T2, Muscarinic acetylcholine receptor M4 (Homo sapiens, UniProt P08173); type: cell membranes, CHO-K1, Membrane; details: cho-k1; also: in other assays of this panel Not Active means under 50% inhibition at 10 µM
T2 sequence (P08173 whole entry): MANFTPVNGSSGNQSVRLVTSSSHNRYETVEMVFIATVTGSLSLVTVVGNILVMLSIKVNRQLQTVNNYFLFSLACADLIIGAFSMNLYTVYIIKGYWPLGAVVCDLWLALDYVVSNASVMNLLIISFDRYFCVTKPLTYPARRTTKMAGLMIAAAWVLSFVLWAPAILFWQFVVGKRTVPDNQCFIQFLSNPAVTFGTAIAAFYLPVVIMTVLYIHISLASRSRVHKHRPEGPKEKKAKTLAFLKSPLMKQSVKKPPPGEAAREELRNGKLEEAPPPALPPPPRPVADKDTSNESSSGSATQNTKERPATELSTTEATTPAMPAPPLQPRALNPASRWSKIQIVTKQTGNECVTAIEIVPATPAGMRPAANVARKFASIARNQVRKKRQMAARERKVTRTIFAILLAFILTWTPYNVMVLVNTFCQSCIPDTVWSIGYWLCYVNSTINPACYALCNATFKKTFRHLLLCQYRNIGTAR

[3] = molecular target: Sigma non-opioid intracellular receptor 1 (Homo sapiens, UniProt Q99720); assay: DRUGMATRIX: Sigma1 radioligand binding (ligand: [3H] Haloperidol); type: cell membranes, Jurkat, Membrane; details: jurkat; Not Active = under 50% inhibition at 10 µM
[4] = molecular target: Vascular endothelial growth factor receptor 1 (Homo sapiens, UniProt P17948); type: cell-based; details: huvec; also: in other assays of this panel Not Active means under 50% inhibition at 10 µM
[5] = molecular target: Delta-type opioid receptor (Homo sapiens, UniProt P41143); type: cell membranes, HEK293, Membrane; details: hek293; also: in other assays of this panel Not Active means under 50% inhibition at 10 µM
[6] = molecular target: Cytochrome P450 2D6 (Homo sapiens, UniProt P10635); details: bti-tn-5b1-4; also: in other assays of this panel Not Active means under 50% inhibition at 10 µM
[7] = DRUGMATRIX: Potassium Channel [KATP] radioligand binding (ligand: [3H] Glyburide); type: cell membranes, Membrane; details: hit-t15; Not Active = under 50% inhibition at 10 µM

Chain of Sigma non-opioid intracellular receptor 1 (Q99720 whole entry): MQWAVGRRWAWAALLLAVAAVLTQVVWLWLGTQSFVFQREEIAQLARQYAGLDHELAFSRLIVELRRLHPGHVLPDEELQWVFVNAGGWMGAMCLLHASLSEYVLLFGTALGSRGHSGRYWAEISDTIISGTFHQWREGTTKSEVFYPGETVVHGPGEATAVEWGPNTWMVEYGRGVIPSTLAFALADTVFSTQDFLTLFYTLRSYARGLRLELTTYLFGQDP
Chain of Cytochrome P450 2D6 (P10635 whole entry): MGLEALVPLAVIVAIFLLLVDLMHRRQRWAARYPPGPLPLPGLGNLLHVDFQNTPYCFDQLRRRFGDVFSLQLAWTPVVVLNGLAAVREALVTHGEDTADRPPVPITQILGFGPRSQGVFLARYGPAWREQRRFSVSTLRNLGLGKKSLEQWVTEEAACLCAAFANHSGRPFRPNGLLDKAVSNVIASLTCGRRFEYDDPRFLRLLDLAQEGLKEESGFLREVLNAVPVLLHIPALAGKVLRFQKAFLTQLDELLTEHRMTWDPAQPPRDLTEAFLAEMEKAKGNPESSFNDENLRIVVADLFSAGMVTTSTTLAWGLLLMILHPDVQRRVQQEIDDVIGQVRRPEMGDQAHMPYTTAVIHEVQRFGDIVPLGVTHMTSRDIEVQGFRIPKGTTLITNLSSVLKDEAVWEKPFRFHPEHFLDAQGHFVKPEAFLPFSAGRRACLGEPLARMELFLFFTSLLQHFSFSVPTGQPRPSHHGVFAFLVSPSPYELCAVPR
Chain of Delta-type opioid receptor (P41143 whole entry): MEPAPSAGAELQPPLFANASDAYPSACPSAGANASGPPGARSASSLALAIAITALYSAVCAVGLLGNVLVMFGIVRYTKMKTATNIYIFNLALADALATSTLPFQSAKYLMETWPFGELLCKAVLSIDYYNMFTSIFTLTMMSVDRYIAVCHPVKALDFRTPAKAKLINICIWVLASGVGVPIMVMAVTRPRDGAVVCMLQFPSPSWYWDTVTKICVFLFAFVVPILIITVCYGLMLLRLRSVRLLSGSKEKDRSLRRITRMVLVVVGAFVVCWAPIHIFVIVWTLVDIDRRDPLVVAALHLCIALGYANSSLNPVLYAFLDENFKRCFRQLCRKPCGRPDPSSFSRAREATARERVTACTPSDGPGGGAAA
Chain of Vascular endothelial growth factor receptor 1 (P17948 whole entry): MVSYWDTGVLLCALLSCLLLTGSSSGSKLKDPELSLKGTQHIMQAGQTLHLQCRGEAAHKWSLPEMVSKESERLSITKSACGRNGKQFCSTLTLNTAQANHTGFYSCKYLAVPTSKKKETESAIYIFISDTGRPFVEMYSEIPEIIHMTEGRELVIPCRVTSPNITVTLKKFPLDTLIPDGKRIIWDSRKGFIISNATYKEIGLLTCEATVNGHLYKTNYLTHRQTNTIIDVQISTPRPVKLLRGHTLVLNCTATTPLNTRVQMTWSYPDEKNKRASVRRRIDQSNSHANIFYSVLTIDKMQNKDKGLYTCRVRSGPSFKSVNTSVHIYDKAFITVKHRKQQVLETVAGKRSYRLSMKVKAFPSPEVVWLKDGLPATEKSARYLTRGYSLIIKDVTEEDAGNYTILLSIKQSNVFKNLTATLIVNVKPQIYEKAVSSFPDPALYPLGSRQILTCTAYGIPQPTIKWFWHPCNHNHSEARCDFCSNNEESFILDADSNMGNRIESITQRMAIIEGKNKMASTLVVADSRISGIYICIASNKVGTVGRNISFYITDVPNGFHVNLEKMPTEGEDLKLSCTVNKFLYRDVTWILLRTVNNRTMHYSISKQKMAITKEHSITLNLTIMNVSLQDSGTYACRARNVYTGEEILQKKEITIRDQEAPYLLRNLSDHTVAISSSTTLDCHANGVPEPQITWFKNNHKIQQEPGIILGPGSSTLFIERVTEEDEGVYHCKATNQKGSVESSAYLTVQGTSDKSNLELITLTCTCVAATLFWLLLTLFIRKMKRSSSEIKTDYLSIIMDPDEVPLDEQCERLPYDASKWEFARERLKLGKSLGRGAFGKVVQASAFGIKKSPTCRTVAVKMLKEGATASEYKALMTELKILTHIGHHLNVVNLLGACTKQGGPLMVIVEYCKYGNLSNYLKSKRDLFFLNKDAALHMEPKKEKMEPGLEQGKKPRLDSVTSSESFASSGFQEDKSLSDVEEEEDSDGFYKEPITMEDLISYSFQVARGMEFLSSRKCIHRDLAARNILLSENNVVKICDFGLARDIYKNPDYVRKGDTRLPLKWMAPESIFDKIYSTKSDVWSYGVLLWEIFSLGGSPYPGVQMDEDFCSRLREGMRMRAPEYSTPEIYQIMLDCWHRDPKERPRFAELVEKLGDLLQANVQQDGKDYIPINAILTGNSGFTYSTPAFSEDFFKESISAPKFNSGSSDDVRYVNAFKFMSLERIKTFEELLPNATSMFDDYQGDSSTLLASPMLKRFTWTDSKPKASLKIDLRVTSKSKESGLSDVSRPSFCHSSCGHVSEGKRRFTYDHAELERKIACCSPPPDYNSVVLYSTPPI

Cc1ccc(/N=C/N(C)/C=N/c2ccc(C)cc2C)c(C)c1 [AMITRAZ]
Not Active: IC50 [1] | IC50 [2] | IC50 [3] | IC50 [4] | IC50 [5] | IC50 [6] | Ki [6] | IC50 [7] | Ki [7]

CCOC(=O)C1=C(COCCN)NC(C)=C(C(=O)OC)C1c1ccccc1Cl (configuration not stated) [AMLODIPINE]
Not Active: IC50 [1] | IC50 [2] | IC50 [3] | IC50 [4] | IC50 [5] | IC50 [6] | Ki [6] | IC50 [7] | Ki [7]

COc1ccc(C[C@H]2NC[C@H](O)[C@H]2OC(C)=O)cc1 [ANISOMYCIN]
Not Active: IC50 [1] | Ki [1] | IC50 [2] | Ki [2] | IC50 [3] | Ki [3] | IC50 [4] | Ki [4] | IC50 [5] | Ki [5] | IC50 [6] | Ki [6] | IC50 [7] | Ki [7]

Nc1ncn([C@@H]2O[C@H](CO)[C@@H](O)[C@H]2O)c(=O)n1 [AZACITIDINE]
Not Active: IC50 [1] | IC50 [2] | IC50 [3] | IC50 [4] | IC50 [5] | IC50 [6] | Ki [6] | IC50 [7] | Ki [7]

c1ccc2c(c1)c1cccc3ccc4cccc2c4c31 [BENZO[E]PYRENE]
Not Active: IC50 [1] | IC50 [2] | IC50 [3] | IC50 [4] | IC50 [5] | IC50 [6] | Ki [6] | IC50 [7] | Ki [7]

CNCCc1ccccn1 [BETAHISTINE]
Not Active: IC50 [1] | IC50 [2] | IC50 [3] | IC50 [4] | IC50 [5] | IC50 [6] | Ki [6] | IC50 [7] | Ki [7]

CC(C)C(Br)C(=O)NC(N)=O (configuration not stated) [BROMISOVALUM]
Not Active: IC50 [1] | IC50 [2] | IC50 [3] | IC50 [4] | IC50 [5] | IC50 [6] | Ki [6] | IC50 [7] | Ki [7]

CCCC1O[C@@H]2C[C@H]3[C@@H]4CCC5=CC(=O)C=C[C@]5(C)[C@H]4[C@@H](O)C[C@]3(C)[C@]2(C(=O)CO)O1 (some centres not stated) [BUDESONIDE]
Not Active: IC50 [1] | IC50 [2] | IC50 [3] | IC50 [4] | IC50 [5] | IC50 [6] | Ki [6] | IC50 [7] | Ki [7]

CC(NC(C)(C)C)C(=O)c1cccc(Cl)c1 (configuration not stated) [BUPROPION]
Not Active: IC50 [1] | IC50 [2] | IC50 [3] | IC50 [4] | IC50 [5] | IC50 [6] | Ki [6] | IC50 [7] | Ki [7]

C[C@H](CS)C(=O)N1CCC[C@H]1C(=O)O [CAPTOPRIL]
Not Active: IC50 [1] | IC50 [2] | IC50 [3] | IC50 [4] | IC50 [5] | IC50 [6] | Ki [6] | IC50 [7] | Ki [7]

O=C(O)CCCc1ccc(N(CCCl)CCCl)cc1 [CHLORAMBUCIL]
Not Active: IC50 [1] | IC50 [2] | IC50 [3] | IC50 [4] | IC50 [5] | IC50 [6] | Ki [6] | IC50 [7] | Ki [7]

C[C@H](CCC(=O)O)[C@H]1CC[C@H]2[C@@H]3[C@H](O)C[C@@H]4C[C@H](O)CC[C@]4(C)[C@H]3C[C@H](O)[C@]12C [CHOLIC ACID]
Not Active: IC50 [1] | IC50 [2] | IC50 [3] | IC50 [4] | IC50 [5] | IC50 [6] | Ki [6] | IC50 [7] | Ki [7]

Cc1cc(C2CCCCC2)n(O)c(=O)c1 [CICLOPIROX]
Not Active: IC50 [1] | IC50 [2] | IC50 [3] | IC50 [4] | IC50 [5] | IC50 [6] | Ki [6] | IC50 [7] | Ki [7]

CC1=C2C(=CO[C@H](C)[C@H]2C)C(O)=C(C(=O)O)C1=O [CITRININ]
Not Active: IC50 [1] | IC50 [2] | IC50 [3] | IC50 [4] | IC50 [5] | IC50 [6] | Ki [6] | IC50 [7] | Ki [7]

CC(C)(C)NCC(O)c1cc(Cl)c(N)c(Cl)c1 (configuration not stated) [CLENBUTEROL]
Not Active: IC50 [1] | IC50 [2] | IC50 [3] | IC50 [4] | IC50 [5] | IC50 [6] | Ki [6] | IC50 [7] | Ki [7]

Cc1cc(C(C#N)c2ccc(Cl)cc2)c(Cl)cc1NC(=O)c1cc(I)cc(I)c1O (configuration not stated) [CLOSANTEL]
Not Active: IC50 [1] | IC50 [2] | IC50 [3] | IC50 [4] | IC50 [5] | IC50 [6] | Ki [6] | IC50 [7] | Ki [7]

Cc1onc(-c2ccccc2Cl)c1C(=O)N[C@@H]1C(=O)N2[C@@H]1SC(C)(C)[C@@H]2C(=O)O [CLOXACILLIN]
Not Active: IC50 [1] | IC50 [2] | IC50 [3] | IC50 [4] | IC50 [5] | IC50 [6] | Ki [6] | IC50 [7] | Ki [7]

CC1CC(OC(=O)C(O)c2ccccc2)CC(C)(C)C1 (configuration not stated) [CYCLANDELATE]
Not Active: IC50 [1] | IC50 [2] | IC50 [3] | IC50 [4] | IC50 [5] | IC50 [6] | Ki [6] | IC50 [7] | Ki [7]

Cc1c2oc3c(C)ccc(C(=O)N[C@@H]4C(=O)N[C@H](C(C)C)C(=O)N5CCC[C@H]5C(=O)N(C)CC(=O)N(C)[C@@H](C(C)C)C(=O)O[C@@H]4C)c3nc-2c(C(=O)N[C@@H]2C(=O)N[C@H](C(C)C)C(=O)N3CCC[C@H]3C(=O)N(C)CC(=O)N(C)[C@@H](C(C)C)C(=O)O[C@@H]2C)c(N)c1=O [DACTINOMYCIN] (I: T[dV]P[Sar][NMeV] / II: T[dV]P[Sar][NMeV]; ester I:1-I:C, II:1-II:C; linker I:N-II:N via Actinocin(1to9))
Not Active: IC50 [1] | IC50 [2] | IC50 [3] | IC50 [4] | IC50 [5] | IC50 [6] | Ki [6] | IC50 [7] | Ki [7]

Cc1c(O)c(=O)ccn1C [DEFERIPRONE]
Not Active: IC50 [1] | IC50 [2] | IC50 [3] | IC50 [4] | IC50 [5] | IC50 [6] | Ki [6] | IC50 [7] | Ki [7]

CNCCCN1c2ccccc2CCc2ccccc21 [DESIPRAMINE]
Not Active: IC50 [1] | IC50 [2] | IC50 [3] | IC50 [4] | IC50 [5] | IC50 [6] | Ki [6] | IC50 [7] | Ki [7]

O=c1oc2ccccc2c(O)c1Cc1c(O)c2ccccc2oc1=O [DICUMAROL]
Not Active: IC50 [1] | IC50 [2] | IC50 [3] | IC50 [4] | IC50 [5] | IC50 [6] | Ki [6] | IC50 [7] | Ki [7]

C[C@H]1O[C@@H](O[C@H]2[C@@H](O)C[C@H](O[C@H]3[C@@H](O)C[C@H](O[C@H]4CC[C@@]5(C)[C@H](CC[C@@H]6[C@@H]5C[C@@H](O)[C@]5(C)[C@@H](C7=CC(=O)OC7)CC[C@]65O)C4)O[C@@H]3C)O[C@@H]2C)C[C@H](O)[C@@H]1O [DIGOXIN]
Not Active: IC50 [1] | IC50 [2] | IC50 [3] | IC50 [4] | IC50 [5] | IC50 [6] | Ki [6] | IC50 [7] | Ki [7]
